Measured values from US20210332036A1, “PYRIMIDINE AND PYRAZINE HDAC1,2 INHIBITORS” (REGENACY PHARMACEUTICALS, LLC, priority 2018, published 2021).

Key:
[1] = PK parameters, IV dosing (plasma and brain exposure); format: in vivo; parameters: AUC(0-t): concentration or dose not given beside the values; conditions: Mouse IV; for Kp: brain/plasma, read-out: Brain AUC/Plasma AUC
Method: [The procedure below names another organism; the source lists this organism under the same test.] Male SD rats were fasted overnight. Compounds of the invention were dissolved in dimethyl acetamide at 10 times the final concentration, then Solutol HS 15 (BASF) was added to a final concentration of 10%. Finally 80% saline was added and vortexed to achieve a clear solution. For the IV dosing three animals were injected via the foot dorsal vein with 1 mg/kg compound. For the PO dosing 5 mg/kg of compound was delivered by oral gavage. Blood was collected via the tail vein into K2EDTA tubes at 5 minutes, 15 minutes, 30 minutes, 1 hour, 2 hours, 4 hours, 8 hours and 24 hours after dosing. The blood was centrifuged at 2000 g for 5 minutes at 4° C. to obtain plasma. The plasma was extracted with acetonitrile and the level of compound was analyzed by LC/MS/MS. The level of compound in plasma was calculated from a standard curve in rat plasma. The IV clearance (L/h/kg) and area under the curve (h*ng/mL) were calculated using WinNonLin software. The dose adjusted area under the curve for the IV and oral dosing were used to calculate the oral bioavailability.
Pharmacokinetic properties were assessed in a rat cassette dosing experiment. The IV clearance (IV Clr.) is in units of L/hr/kg. The oral maximum plasma concentration (PO Cmax) is in units of ng/ml. The oral plasma half-life (PO T1/2) is in units of hours. The oral area under the curve (PO AUC) is in units of hours*ng/ml. The fraction absorbed by the oral route (F %) is a percentage of the oral area under the curve to the IV area under the curve, dose adjusted.

[2] = PK parameters, IP dosing (plasma and brain exposure); format: in vivo; parameters: AUC(0-t): concentration or dose not given beside the values; conditions: Mouse IP; for Kp: brain/plasma, read-out: Brain AUC/Plasma AUC
[3] = target: T1, HDAC1 (Homo sapiens, UniProt Q13547); assay: HDAC enzyme assay, HDAC1; format: biochemical; conditions: 16 μM substrate, 10 min preincubation
T1 construct: purchased BPS Biosciences
T1 sequence (Q13547 whole entry): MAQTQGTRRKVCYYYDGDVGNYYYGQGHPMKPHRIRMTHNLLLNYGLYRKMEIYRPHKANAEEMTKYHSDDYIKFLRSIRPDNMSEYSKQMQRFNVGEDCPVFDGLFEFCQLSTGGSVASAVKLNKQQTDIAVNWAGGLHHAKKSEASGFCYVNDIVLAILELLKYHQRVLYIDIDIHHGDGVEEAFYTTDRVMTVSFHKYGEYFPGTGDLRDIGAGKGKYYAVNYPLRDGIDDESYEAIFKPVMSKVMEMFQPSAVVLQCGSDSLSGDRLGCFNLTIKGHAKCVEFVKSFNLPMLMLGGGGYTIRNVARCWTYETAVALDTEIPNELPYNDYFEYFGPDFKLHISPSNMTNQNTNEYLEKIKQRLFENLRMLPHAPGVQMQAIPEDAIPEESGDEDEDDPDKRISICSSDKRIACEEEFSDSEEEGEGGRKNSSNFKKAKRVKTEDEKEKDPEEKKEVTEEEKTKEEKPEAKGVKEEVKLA
Method: (§1) Compounds for testing were diluted in DMSO to 50 fold the final concentration and a ten-point three-fold dilution series was made. The compounds were diluted in assay buffer (50 mM HEPES, pH 7.4, 100 mM KCl, 0.001% Tween-20, 0.05% BSA, 20 μM TCEP) to 6-fold their final concentration. The HDAC enzymes (purchased from BPS Biosciences) were diluted to 1.5-fold their final concentration in assay buffer. The tripeptide substrate and trypsin at 0.05 μM final concentration were diluted in assay buffer at 6-fold their final concentration. The final enzyme concentrations used in these assays were 3.3 ng/ml (HDAC1), 0.2 ng/ml (HDAC2) and 0.08 ng/ml (HDAC3). The final substrate concentrations used were 16 μM (HDAC1), 10 μM (HDAC2) and 17 μM (HDAC3).
(§2) Five μl of compounds and 20 μl of enzyme were added to wells of a black, opaque 384 well plate in duplicate. Enzyme and compound were incubated together at room temperature for 10 minutes. Five μl of substrate was added to each well, the plate was shaken for 60 seconds and placed into a Victor 2 microtiter plate reader. The development of fluorescence was monitored for 60 min and the linear rate of the reaction was calculated. The IC50 was determined using Graph Pad Prism by a four parameter curve fit.

[4] = target: T2, HDAC2 (Homo sapiens, UniProt Q92769); assay: HDAC enzyme assay, HDAC2; format: biochemical; conditions: 10 μM substrate, 10 min preincubation
T2 construct: purchased BPS Biosciences
T2 sequence (Q92769 whole entry): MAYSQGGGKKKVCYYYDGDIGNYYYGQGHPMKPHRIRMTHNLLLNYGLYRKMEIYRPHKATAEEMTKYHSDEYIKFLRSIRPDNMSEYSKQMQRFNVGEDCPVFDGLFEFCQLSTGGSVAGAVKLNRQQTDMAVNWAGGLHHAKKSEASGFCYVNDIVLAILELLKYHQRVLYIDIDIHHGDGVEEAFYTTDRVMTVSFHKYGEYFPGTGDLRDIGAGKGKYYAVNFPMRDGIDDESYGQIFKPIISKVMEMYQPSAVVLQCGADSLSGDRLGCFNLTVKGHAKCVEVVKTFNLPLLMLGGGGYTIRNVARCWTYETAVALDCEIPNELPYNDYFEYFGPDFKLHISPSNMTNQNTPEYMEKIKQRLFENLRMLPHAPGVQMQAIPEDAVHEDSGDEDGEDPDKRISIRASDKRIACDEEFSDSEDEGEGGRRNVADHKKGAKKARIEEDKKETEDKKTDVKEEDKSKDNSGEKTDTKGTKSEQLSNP
Method: as §1, §2

[5] = target: T3, HDAC3 (Homo sapiens, UniProt O15379); assay: HDAC enzyme assay, HDAC3; format: biochemical; conditions: 17 μM substrate, 10 min preincubation
T3 construct: purchased BPS Biosciences
T3 sequence (O15379 whole entry): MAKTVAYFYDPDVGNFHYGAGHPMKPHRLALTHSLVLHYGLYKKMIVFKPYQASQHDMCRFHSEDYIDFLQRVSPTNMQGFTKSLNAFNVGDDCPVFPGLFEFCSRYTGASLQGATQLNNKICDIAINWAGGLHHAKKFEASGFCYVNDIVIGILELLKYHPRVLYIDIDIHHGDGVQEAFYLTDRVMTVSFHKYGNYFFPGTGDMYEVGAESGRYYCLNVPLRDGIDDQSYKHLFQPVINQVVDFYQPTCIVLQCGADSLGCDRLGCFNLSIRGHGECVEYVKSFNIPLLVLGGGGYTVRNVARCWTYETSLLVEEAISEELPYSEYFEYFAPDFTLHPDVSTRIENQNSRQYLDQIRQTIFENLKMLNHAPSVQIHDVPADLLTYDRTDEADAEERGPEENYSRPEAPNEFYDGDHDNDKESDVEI
T3 sequence (Q9Y618 395-489 partner limits assumed): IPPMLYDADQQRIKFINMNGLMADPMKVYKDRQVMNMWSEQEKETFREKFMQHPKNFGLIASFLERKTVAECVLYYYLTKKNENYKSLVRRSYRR
Method: as §1, §2

[6] = brain, read-out: AUC(last) Brain
[7] = plasma, read-out: AUC(last) Plasma

Row | AUC(0-t) [1, 6] [ng·h/mL] | AUC(0-t) [1, 7] [ng·h/mL] | Kp [1] | AUC(0-t) [2, 6] [ng·h/mL] | AUC(0-t) [2, 7] [ng·h/mL] | Kp [2] | IC50 [3] [nM] | IC50 [4] [nM] | IC50 [5] [nM] | SMILES
1 | 19000 to 20000 | 1400 to 1500 | 10 to 15 | 64700 to 64800 | 6700 to 6800 | 1 to 5 | 10 to 20 | 30 to 40 | 480 to 490 | Cc1ccc(-c2ccc(N)c(NC(=O)c3ccc(N4CCNCC4)cn3)c2)cc1 [Compound 001]
2 | 9000 to 10000 | 400 to 500 | 20 to 25 | 23100 to 23200 | 2400 to 2500 | 5 to 10 | 1 to 10 | 10 to 20 | 200 to 210 | Nc1cc(F)c(-c2cccs2)cc1NC(=O)c1ccc(N2CCNCC2)cn1 [Compound 002]
3 | 3000 to 4000 | 1000 to 1100 | 1 to 5 | 7900 to 8000 | 4700 to 4800 | 1 to 5 | 1 to 10 | 20 to 30 | 170 to 180 | Nc1ccc(-c2ccccc2)cc1NC(=O)c1ccc(N2CCNCC2)nn1 [Compound 003]
4 | 500 to 600 | 700 to 800 | 0.1 to 1.5 | 2100 to 2200 | 2300 to 2400 | 0.1 to 1.5 | 1 to 10 | 50 to 60 | 440 to 450 | COCCOc1ccc(C(=O)Nc2cc(-c3cccs3)ccc2N)nc1 [Compound 004]
5 | 600 to 700 | 600 to 700 | 0.8 to 1.2 | 2000 to 2100 | 2300 to 2400 | 0.1 to 1.5 | 1 to 10 | 10 to 20 | 110 to 120 | Nc1ccc(-c2cccs2)cc1NC(=O)c1ccc(OCCO)cn1 [Compound 005]
6 | 700 to 800 | 200 to 300 | 2 to 4 | 700 to 800 | 800 to 900 | 0.1 to 1.5 | 1 to 10 | 40 to 50 | 80 to 90 | CN1CCN(c2cnc(C(=O)Nc3cc(-c4cccs4)ccc3N)nc2)CC1 [Compound 006]
7 | 30 to 40 | 400 to 500 | 0.01 to 0.1 | 900 to 1000 | 1800 to 1900 | 0.1 to 1.5 | 10 to 20 | 90 to 100 | 170 to 180 | Nc1ccc(-c2cccs2)cc1NC(=O)c1ncc(N2CCNCC2)cn1 [Compound 007]
8 | 200 to 300 | 600 to 700 | 0.1 to 1.5 | 1300 to 1400 | 2900 to 3000 | 0.1 to 1.5 | 1 to 10 | 20 to 30 | 260 to 270 | COCCOc1ccc(C(=O)Nc2cc(-c3cccs3)ccc2N)nn1 [Compound 008]
9 | 300 to 400 | 300 to 400 | 0.8 to 1.5 | 200 to 300 | 1700 to 1800 | 0.1 to 1.5 | 10 to 20 | 70 to 80 | 200 to 210 | Nc1ccc(-c2ccccc2)cc1NC(=O)c1ncc(N2CCNCC2)cn1 [Compound 009]
10 | 200 to 300 | 500 to 600 | 0.1 to 1.5 | 200 to 300 | 2000 to 2100 | 0.1 to 1.5 | 1 to 10 | 10 to 20 | 120 to 130 | CC(=O)N1CCN(c2ccc(C(=O)Nc3cc(-c4cccs4)ccc3N)nc2)CC1 [Compound 010]
11 | 100 to 200 | 200 to 300 | 0.1 to 1.5 | < 100 | 900 to 1000 | 0.1 to 1.5 | 1 to 10 | 10 to 20 | > 2000 | CNS(=O)(=O)Oc1ccc(-c2ccc(N)c(NC(=O)c3ccc(N4CCN(C)CC4)cn3)c2)cc1 [Compound 011]
12 | 400 to 500 | 800 to 900 | 0.1 to 1.5 | 300 to 400 | 4300 to 4400 | 0.01 to 0.1 | 1 to 10 | 10 to 20 | 20 to 30 | Nc1ccc(-c2cncs2)cc1NC(=O)c1ccc(N2CCNCC2)cn1 [Compound 012]
13 | 200 to 300 | 1100 to 1200 | 0.1 to 0.3 | 300 to 400 | 5900 to 6000 | 0.01 to 0.1 | 1 to 10 | 20 to 30 | 140 to 150 | Nc1ccc(-c2cccs2)cc1NC(=O)c1ccc(OC[C@H](O)CO)cn1 [Compound 013]
14 | 100 to 200 | 1500 to 1600 | 0.05 to 0.1 | 200 to 300 | 7400 to 7500 | 0.01 to 0.1 | 1 to 10 | 10 to 20 | 50 to 60 | Nc1ccc(-c2cccs2)cc1NC(=O)c1ccc(NC2CCN(C(=O)N3CCNCC3)CC2)cn1 [Compound 014]
15 | 100 to 200 | 500 to 600 | 0.1 to 1.5 | < 100 | 3200 to 3300 | 0.01 to 0.1 | 10 to 20 | 30 to 40 | 110 to 120 | Nc1ccc(-c2ccoc2)cc1NC(=O)c1ncc(N2CCNCC2)cn1 [Compound 015]
16 | < 100 | 300 to 400 | 0.01 to 0.1 | < 100 | 900 to 1000 | 0.001 to 0.01 | 1 to 10 | 30 to 40 | 230 to 240 | Nc1ccc(-c2ccccc2)cc1NC(=O)c1ncc(NCCOCc2cccnc2)cn1 [Compound 016]
17 | 9000 to 10000 | 600 to 700 |  | 25000 to 25300 | 2700 to 2800 |  | 1 to 10 | 5 to 15 | 30 to 40 | Nc1ccc(-c2cccs2)cc1NC(=O)c1cnc(N2CCNCC2)cn1 [Compound 017]
